{"source": "patent US7470821B2", "about": "“Aldolase-inhibiting aromatic compounds” (Valorisation-Recherche, Limited Partnership, priority 2003, dated 2008)", "key": {"[1]": {"target": "T1, native aldolase from rabbit muscle (RM) (Oryctolagus cuniculus, UniProt P00883)", "T1 construct": "made in house", "T1 sequence (P00883 1-364)": "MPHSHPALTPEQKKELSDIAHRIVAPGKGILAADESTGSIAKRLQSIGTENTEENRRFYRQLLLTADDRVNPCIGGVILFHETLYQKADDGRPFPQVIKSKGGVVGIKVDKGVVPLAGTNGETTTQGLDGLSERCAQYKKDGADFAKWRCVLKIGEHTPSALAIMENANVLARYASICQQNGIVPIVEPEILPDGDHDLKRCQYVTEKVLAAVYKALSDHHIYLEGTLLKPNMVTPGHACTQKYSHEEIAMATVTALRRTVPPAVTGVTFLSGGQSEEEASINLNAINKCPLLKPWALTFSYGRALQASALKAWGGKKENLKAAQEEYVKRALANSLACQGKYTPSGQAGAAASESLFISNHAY", "experiment": "Aldolase activity by coupled enzyme test (TIM/GDH), inactivation and reactivation kinetics", "format": "biochemical", "conditions": "for Specific activity: RM 0.2 mg/mL", "method": "Aldolase activity was measured using a coupled enzyme test system: the triose-phosphate isomerase and glycerol-3-phosphate deshydrogenase (TIM/GDH) system, following oxidation of the NADH (Boehringer-Mannheim, France) at 340 nm, by means of a SAFAS spectrophotometer preheated to 25° C. Testing began with the addition of the substrate (Fru(1.6)P2; […] in final concentration), to complete an aldolase solution created in a triethanolamine buffer (TEA buffer) (100 Mm TEA/HCl; 50 mM NaCl; 1 mM EDTA, pH 7.6; ionic strength 0.15), 0.42 mM of NADH, and containing both enzyme systems (10 μg/mL of GDH and 1 μg/mL of TIM) for a final volume of 1 mL. The construction, overexpression and purification of recombinant aldolase were carried out in accordance with Morris A. J. et al., 1993 (J. Biol. Chem., 265:1095-1100) and Berthiaume L. et al., 1993 (J. Biol. Chem., 268:10826-10835).\nThe substrate cleavage rate was determined by measuring the decrease in absorbance/minute at 340 nm. The aldolase was dialyzed overnight at 4° C. against a TEA buffer prior to use. The protein concentration was determined by spectrophotometry, using ε280=0.91 mL.mg^−1.cm^−1 as an extinction coefficient. Subunit concentration was determined on the basis of a molecular weight of 159,000 for an aldolase tetramer. • Kinetic Method:\nIn the extreme situation where k−2 approaches zero, a reversible slow-binding inhibitor may resemble an irreversible one directed toward the active site. In this situation, the equation eqn.(3) is used for this type of inhibition (Meloche H. P., 1967, Biochemistry, 6:2273-2280). The semi-inactivation time of the enzyme (t1/2) is defined as a function of the mutual inhibitor concentration and is graphically represented by a straight line crossing the Y-axis at […] and crossing the X-axis at −1/Ki. • Experimental Protocol:\nNative aldolase (5 μM of subunits) is incubated in the presence of FHN-P (0.05-1 mM) in TEA buffer. Enzyme activity is analyzed as a function of time using 10 μl aliquot portions.\nInactivation kinetics follow pseudo-first-order kinetics, and kinetic parameters Ki and k2 are determined by using the equation eqn.(3). To determine the reactivation rate, aldolase (25 μM of subunits in the TEA buffer) is incubated with 500 μM of FHN-P until reaching 90% inactivation. Excess inhibitor is removed by ultrafiltration with a PM-30 Millipore membrane. The enzyme-inhibitor complex is incubated in the TEA buffer (15 μM of subunits at final concentration) containing hexitol-P2 (10 mM). Aliquot portions (10 μl) are removed at different times to measure aldolase activity.\nControls involve repeating the protocol without FHN-P. The reactivation process is analyzed as if it were a first-order reaction. • Monitored by UV-Visible Differential Spectroscopy."}, "[2]": {"experiment": "Titration of FHN-P by aminocaproic acid, Schiff base model reaction (method B)", "conditions": "25° C", "method": "Method B is used to titrate FHN-P by aminocaproic acid. For each analysis of TEA buffer containing a fixed concentration of FHN-P (10 μM), aminocaproic acid is added to obtain varying final concentrations (0.01-0.2 M). The differential absorption spectra, corresponding to the formation of a Schiff base, are recorded at different time intervals, then corrected with absorbance of the buffer, the aminocaproic acid and FHN-P (measured separately).\nThe apparent first-order rate constant (kapp) and the maximum threshold variations of absorption (ΔAmax) are obtained for each test by applying the slow-binding absorption data to the first-order kinetic equation (or to both first-order kinetic mechanisms). The dissociation constant (Kd) for the Schiff base formed between the FHN-P and the aminocaproic acid is obtained from the absorption differences calculated at equilibrium by using the equation eqn.(2). […]\nThe FHN-P and the ε-amino group of aldolase lysine residues were taken as the model for formation of the Schiff base, with the reaction of FHN-P (10 μM) with aminocaproic acid […] as a reference, and which was monitored by UV-visible differential spectroscopy. […]"}}, "note": "Like-named read-outs stand apart in the source and are kept apart here."}
{"compound": "O=Cc1c(O)ccc2cc(OP(=O)(O)O)ccc12", "note": "[FHN-P, 5-formyl-6-hydroxy-2-naphthylphosphate]", "values": [{"measurement": "Specific activity", "setting": "[1]; FHN-P 250 μM with Fru(1,6)P2 (1 mM), 80 min incubation", "result": "5.2 ± 0.4", "unit": "Unit/mg"}, {"measurement": "Specific activity", "setting": "[1]; FHN-P 250 μM with hexitol-P2, 80 min incubation", "result": "9.9 ± 0.5", "unit": "Unit/mg"}, {"measurement": "Specific activity", "setting": "[1]; compound 250 μM, TEA buffer pH 7.6, 80 min incubation, RM alone 12.5 ± 0.5", "result": "2.8 ± 0.3", "unit": "Unit/mg"}, {"measurement": "Ki", "setting": "[1]; dissociation constant of rapidly formed EI complex, from kapp at 0.01-1.5 mM inhibitor, eqn.(3), read-out: Ki", "result": "250 ± 100", "unit": "µM"}, {"measurement": "Ki", "setting": "[1]; estimated from the values of Table 2, read-out: global dissociation constant Ki*", "result": "0.04 ± 0.02", "unit": "µM"}, {"measurement": "k2", "setting": "[1]; inactivation constant, enzyme activity kinetics", "result": "0.07 ± 0.01", "unit": "min⁻¹"}, {"measurement": "second-order constant k2nd", "setting": "[2]; FHN-P 10 μM with aminocaproic acid", "result": "0.002 ± 0.00017", "unit": "M⁻¹ s⁻¹"}, {"measurement": "Kd", "setting": "[2]; Schiff base, TEA buffer, read-out: dissociation constant Kd of FHN-P-aminocaproic acid", "result": "16000 ± 3000", "unit": "µM"}]}
